Results from patent US20070072815A1, “Methods and kits to increase the efficiency of oligonucleotide-directed nucleic acid sequence alteration” (priority 2004, published 2007).
Entries after “also recorded” stand apart in the source; their conditions may differ.

Tests used:
DLD-1-1 cells [1] = assay: Cell cycle analysis (DNA content by FACS), cells in S phase; type: cell-based; settings: 24 hours, 1 mM HU or 3 μM VP16, FACS analysis
Experimental: For cell cycle analysis, 1×10^6 cells are plated 24 hrs before the treatment with drugs and after 24 hrs of treatment, cells are trypsinized, resuspended in 300 μl cold PBS and fixed by adding 700 μl cold ethanol. Cells are then resuspended in 1 ml of PBS containing 500 µg/ml RNaseA and […] propidium iodide and analyzed for DNA content.
The effect of cell cycle on the efficiency of ODSA is assessed by synchronizing a population of DLD-1-1 cells with mimosine, which arrests cells in early S phase, and serum starvation. Cells are seeded at a density of 0.8×10^6 per 100 mm dish, attached for 20 hours and then cultured in RMPI-1640 medium containing 0.2% fetal bovine serum (FBS). These cells are grown for 48 hours followed by treatment with 0.1 mM mimosine (Sigma, St. Louis, Mo., USA) for 20 hours. Cell are washed twice with PBS and released at various times into fresh medium complemented with 10% FBS before electroporation. Cells are rinsed once with PBS, trypsinized and harvested by centrifugation and resuspended in PBS containing 10 μg/ml propidium iodide, 0.03% Triton-100 and 1 mg/ml RNase. Cells are incubated at room temperature for 1 hour before the measurement of DNA content by FACSCalibur™ flow cytometer. The percentage of cells at various stages of the cell cycle is determined by ModFit L™ software (Verity Software House, Inc., Topsham, Me., USA).
The resulting cells are then either analyzed by FACS, or the percentage of cells in S phase is determined by BrdU incorporation. FIG. 8 presents the results of both sets of experiments.

DNA of DLD-1-1 cells = assay: Pulsed-field gel electrophoresis of DNA damage (double strand breaks); type: cell-based; settings: HU 0.3, 1 or 5 mM; VP16 0.5, 1 or 3 μM; 24 hours
Experimental: The cells are released by trypsinization and melted in the agarose inserts. The agarose inserts are incubated in 0.5M EDTA—1% N-laurosylsarcosine—proteinase K (1 mg/ml) at 50° C. for 48 hrs and then washed four times in TE buffer prior to loading on a 1% agarose gel (Pulse-Field Certified Agarose, Bio-Rad, Hercules, Calif.) and DNA separation by pulsed-field gel electrophoresis is carried out for 24 hrs (Bio-Rad, 120° field angle, 60 to 240s switch time, 4 V/cm). The gel is subsequently stained with ethidium bromide and analyzed with AlphaImager™ 2200. (Alpha Innotech Corp., San Leandro, Calif.).
The effects of MMS and bleomycin on oligonucleotide-directed gene alteration are determined as follows. DLD-1-1 cells are seeded in 100 mm dishes at 2×10^6 cells per plate and immediately treated with 0.2 μM MMS or 0.75 μM bleomycin. The cells are then grown for 24 hours, until approximately 50% confluent, and washed twice with PBS. A portion of each population of cells is removed for DNA analysis by pulsed-field electrophoresis, as described in Example 1. The correcting oligo EGFP/72NT (10 μg) is then added and the cells are electroporated as in Example 3. Cells are then analyzed to determine the percentage of cells with corrected eGFP genes as described in Example 3.

[2] = tested on: α-galactosidase A (GLA) activity in Fabry's cell line DMN-1; assay: GLA activity in Fabry's cells after ODSA; type: cell-based, human
[3] = tested on: HYGeGFP fusion gene target in Saccharomyces cerevisiae strain LSY678; assay: Hygromycin resistance gene correction in yeast LSY678; type: cell-based; settings: synchronized with alpha factor and released into HU, specific time after release from G1/S border
From the text: An alternative model system to measure oligonucleotide-directed sequence alteration has been developed in the yeast Saccharomyces cerevisiae strain LSY678 (MATa leu 2-3, 112 trpl-1 ura 3-1 his 3-1, 15 ade2-1 can 1-100). The strain has integrated an HYGeGFP fusion gene target containing a single point mutation at base pair 137 in the coding region of the hygromycin gene, rendering it unable to confer resistance to the antibiotic. Oligonucleotide-directed sequence alteration can repair the mutation and restore hygromycin resistance. For example, in one experiment, LSY678 cells are synchronized with alpha factor and released, or synchronized with alpha factor and released into hydroxyurea (HU), prior to electroporation with a correcting oligonucleotide. The combination of alpha factor and HU increased correction efficiency 25-fold as compared to cells treated with neither agent, but only when oligonucleotide treatment is performed at a specific period of time after release from the G1/S border. See also U.S. patent application publication no. 20030207451.

DLD-1-1 cells [4] = assay: Cell viability / cell death by propidium iodide FACS; settings: HU or VP16 prior to electroporation, propidium iodide
Experimental: Flow cytometry analysis: eGFP fluorescence of corrected cells is measured by a Becton Dickinson FACSCalibur™ flow cytometer (Becton Dickinson, Rutherford, N.J.). Cells are harvested 48 hrs after electroporation and resuspended in FACS buffer (0.5% BSA, 2 mM EDTA, 2 μg/ml propidium iodide in PBS). More specifically, the program is set for the appropriate cell size (forward scatter versus side scatter) and the population of single-cells is gated for analysis. Using the negative control (minus PI, minus GFP) the background fluorescence was set by positioning the cells in the 10^1 decade of the dot plot by adjusting the voltage for FL1 (GFP) and FL2 (PI). The composition is then set for multi-fluorochrome experiments using a GFP control sample containing no PI and increasing the compensation to bring the signal toward the FL1 parameter. Finally, the last control, PI and no GFP is used to increase the compensation to bring the signal toward the FL2 parameter. Samples of 50,000 cells each are analyzed and those cells being GFP positive and PI negative are scored as corrected cells.
For cells that were not previously treated with caffeine, caffeine is added to the media to a final concentration of 4 mM in the 60 mM dish immediately following electroporation (the “recovery phase”). For cells that were pre-treated with caffeine, there is no addition of caffeine during the recovery phase. After 24 hrs of recovery, the media is changed and caffeine (4 mM final concentration) is added back to the culture. After 48 hrs of recovery, the samples are read by FACS: eGFP fluorescence reflects gene alteration (correction), and propidium iodide (PI) staining reflects cellular viability.

NC(=O)NO [HU, hydroxyurea]
cells in S-phase (DLD-1-1 cells [1]): 77% | DNA double strand breaks (DNA of DLD-1-1 cells): induce DSBs; also recorded: progressive increase in the amount of damaged DNA | increase in GLA activity compared to untreated cells ([2]; 0.3 mM and 1 mM HU, after seven days): approximately three-fold | increase of GLA activity compared to untreated cells ([2]; cells synchronized by DTB, 1 mM HU prior to transfection with 49T/gg): five-fold | increase of correction efficiency compared to cells treated with neither agent [3]: 25 fold | effect on viability (DLD-1-1 cells [4]): viability is moderately reduced
